These results are taken from patent US20260108572A1, “ALZHEIMER-TYPE DEMENTIA SUPPRESSANT, AND METHOD FOR PRODUCING SAME” (Sakamoto Yakusouen, LLC, priority 2022, published 2026).

In experiment [1] the target is T1, Aβ derived from human (Human, 1-42) (Homo sapiens, UniProt P05067).
T1 construct: Aβ derived from human (“Human, 1-42” manufactured by Peptide Institute); purchased Peptide Institute
As to the kind of experiment: Aβ accumulation inhibitory activity using Thioflavin-T. In kind it is biochemical. The note with it: pure compounds, similarly to Example 5(1); Aβ 25 μM, 24 hours. As to the method:
The Aβ accumulation inhibitory activities of each fraction were determined using Thioflavin-T in the following condition. Aβ derived from human (“Human, 1-42” manufactured by Peptide Institute) was dissolved in 0.1% ammonia water in a concentration of 250 μM. Each of the fraction samples was added to a phosphate buffer (0.05 M sodium phosphate+0.1 M sodium chloride, pH7.4) (hereinafter abbreviated as “PBS”) in the final concentrations of 0.01 g/L, 0.05 g/L and 0.1 g/L. The Aβ solution was added thereto in the final concentration of 25 μM for the reaction at 37° C. A part of the reaction mixture was collected 0, 4, 8 and 24 hours after the start of the reaction, and 2.5 μL of the collected reaction mixture was added to each well of a 96 well plate for fluorescence measurement (“Nunc FluoroNunc plate” manufactured by Thermo Fisher Science). Then, Thioflavin-T solution was dissolved in 50 mM glycine-sodium hydroxide buffer (pH 8.5), and the solution (250 μL) was added to each well. The fluorescence intensity emitted when the B sheet of the Aβ fiber was labeled with Thioflavin-T was measured. The fluorescence intensity was measured using a microplate reader (“Wallac 1420 ARVO MX” manufactured by Perkin Elmer) in the condition of a wavelength of Excitation: 420 nm and Emission: 485 nm.

In experiment [2] the target is T2, human islet amyloid polypeptide (hIAPP) (Homo sapiens, UniProt P10997).
T2 construct: hIAPP manufactured by Karebay Biochem was used in place of Aβ; purchased Karebay Biochem
T2 sequence (P10997 34-70 limits assumed): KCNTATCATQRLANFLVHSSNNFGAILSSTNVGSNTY
Put plainly: hIAPP accumulation inhibitory activity using Thioflavin-T. Particulars: compounds at 1, 10, 100 μM in PBS pH7.4. The experiment is classed as biochemical.

In experiment [3] the test system is senescence-accelerated model mouse SAM-P8. Put plainly: Genome expression (RNA sequencing, PCA) in the whole brain of senescence-accelerated model mice after oral administration. The experiment is classed as in vivo. The note with it: oral 7 days: donepezil 5 mg/kg, acteoside 100 mg/kg, SSa extract powder 500 mg/kg, brain after 30 days.
Description: Seven-week-old male normal aged mouse SAM-R and male senescence-accelerated model mouse SAM-P8 that were respectively obtained from Japan SLC were arbitrarily divided into two groups of 10 mice each and acclimatized for 1 week. Then, 500 mg/kg of SSa extract powder was orally administered to SAM-R SSa extract powder-administered group and SAM-P8 SSa extract powder-administered group for 7 days. Each group of mice other than the above groups was given normal feed and water freely. Next, after the mice were reared for 30 days, the mice were humanely killed by anesthesia. The whole brain was taken out and preserved at −80° C. by the genome analysis.
Next, chloroform (0.2 mL) was added thereto, and the mixture was stirred well for 15 seconds and then stood still for 2 to 3 minutes. […]
The specific mRNA was concentrated from the obtained total RNA using an RNA sample preparation kit (“TruSeq Standard mRNA Library Prep kit” manufactured by Illumina). […] Then, the sequences of the cDNA library were determined using a next-generation DNA sequencer (“NoVaSeq6000” manufactured by Illumina) in the conditions of 100 bp, Paired-end and 40,000,000 read per 1 sample.
STAR>cufflinks>cuffdif analysis was carried out to compare the analysis results. GRCm38.92 was used as a mouse genome database, and the gene expression amount in gene level and in exon level as the component element of the gene was analyzed. […]

SMILES strings stand for the structures.

T1 sequence (P05067 672-713 limits assumed): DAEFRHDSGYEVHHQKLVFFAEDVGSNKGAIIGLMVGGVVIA

Consider `COc1cc2oc(-c3ccc(O)c(O)c3)cc(=O)c2c(O)c1O[C@@H]1O[C@H](CO)[C@@H](O)[C@H](O)[C@H]1O` [Pedaliin, pedaliin], for which the IC50 in experiment [1] worked out at 2.8 µM; in experiment [2], 4.2 µM.

As for `C[C@@H]1O[C@@H](O[C@@H]2[C@@H](O)[C@H](OCCc3ccc(O)c(O)c3)O[C@H](CO)[C@H]2OC(=O)/C=C/c2ccc(O)c(O)c2)[C@H](O)[C@H](O)[C@H]1O` [Acteoside, acteoside], the results for the IC50 in experiment [1] and in experiment [2] were 13 µM and 21 µM, respectively. For the same compound, the “Difference of expression pattern from the control group on PC1 axis (PCA, gene and exon level)” value in experiment [3] is recorded as “not a large difference”.

A word on the IC50: it is the concentration at which inhibition is half-maximal. A higher IC50 goes with weaker potency.
